The text below walks through data of patent US11771086B2, “Pest control composition including novel iminopyridine derivative” (priority 2012, dated 2023).

Holding throughout (type): in vivo
One data set relates to Aphis gossypii. The experiment in a line: Reference Test Example 3 Pest control test of Aphis gossypii (foliar treatment, single agent). Also noted: Aphis gossypii (Reference Test Example 3), mortality of larvae: concentration or dose not given beside the values. To be noted: foliar treatment, single agent.
For another data set, the system named is Plutella xylostella. The experiment in a line: Reference Test Example 1 Pest control test of Plutella xylostella (foliar treatment, single agent). To be noted: foliar treatment, single agent. Set-up: Plutella xylostella (Reference Test Example 1), mortality of larvae: concentration or dose not given beside the values. From the text:
After an air drying process, second instar larvae were released thereto. […] Test in duplicate.

The test system of another data set is Laodelphax striatella. The data set can be described thus: Reference Test Example 18 Pest control test of Laodelphax striatella (wheat seedling root treatment). The settings on record: wheat seedling roots treated; four days after release; 20 μg/seedling. As for the experimental part: The drug was absorbed from the roots for 72 hours, and then ten second instar larvae of Laodelphax striatella were each released thereto. […] The test was performed in duplicate.

Procedure for Aphis gossypii: After an air drying process, first instar larvae were released thereto. Thereafter, the larvae were left to stand in a thermostatic chamber (16 hours of light period-8 hours of dark period) at 25° C. […] Test in duplicate. Mortality (%)={number of dead larvae/(number of survived larvae+number of dead larvae)}×100

As for `O=C(N=c1ccccn1Cc1ccc(Cl)cc1)C(F)(F)F` [Compound P-225], the “Aphis gossypii (Reference Test Example 3), mortality of larvae” value (from here on “Aphis gossypii”) in the data set on Aphis gossypii came out at 90%.
Regarding `O=C(N=c1ccccn1Cc1cnc(Cl)nc1)C(F)(F)Cl` [Compound 6-4], in the data set on Plutella xylostella, the “Plutella xylostella (Reference Test Example 1), mortality of larvae” value (“Plutella xylostella” for short) is reported as 90%. Also, the “Aphis gossypii” value with Aphis gossypii was determined as 100%. For the same compound, in the data set on Laodelphax striatella, the “Laodelphax striatella (Reference Test Example 18), mortality of larvae” value (shortened to “Laodelphax striatella”) is on record as 100%.
With `O=C(N=c1ccccn1Cc1ccc(Br)nc1)C(F)(F)F` [Compound P-231], in the data set on Plutella xylostella, the “Plutella xylostella” value turned out to be 100%. In addition, in the data set with Aphis gossypii, the “Aphis gossypii” value stood at 100%. In the data set with Laodelphax striatella, the “Laodelphax striatella” value worked out at 100%.
With `O=C(N=c1ccccn1Cc1ccc(Cl)nc1)C(Cl)Cl` [Compound P-234], the “Plutella xylostella” value with Plutella xylostella is listed as 100%. For the same compound, the “Aphis gossypii” value with Aphis gossypii came to 100%. Further, the “Laodelphax striatella” value with Laodelphax striatella turned out to be 100%.
For `O=C(N=c1cc(F)ccn1Cc1ccc(Cl)nc1)C(F)(F)F` [Compound P-232], the “Aphis gossypii” value in the data set with Aphis gossypii was found to be 80%.
On to `O=C(CBr)N=c1ccccn1Cc1ccc(Cl)nc1` [Compound P-244], for which the “Aphis gossypii” value with Aphis gossypii is given as 100%. In the data set with Laodelphax striatella, the “Laodelphax striatella” value came to 100%.
In the case of `O=C(N=c1ccccn1Cc1ccc(Br)nc1)C(F)F` [Compound 4-3], the “Plutella xylostella” value with Plutella xylostella stood at 100%. In addition, the “Laodelphax striatella” value in the data set on Laodelphax striatella worked out at 100%.
For `O=C(N=c1ccc(F)cn1Cc1cnc(Cl)s1)C(F)(F)F` [Compound P-219], the “Plutella xylostella” value in the data set on Plutella xylostella is on record as 80%. Further, the “Aphis gossypii” value in the data set on Aphis gossypii is recorded as 85%.
Turning to `O=C(N=c1ccccn1Cc1ccc(Br)nc1)C(F)(F)Cl` [Compound 4-4], the “Plutella xylostella” value in the data set with Plutella xylostella is 100%. Besides, the “Laodelphax striatella” value with Laodelphax striatella is on record as 100%.
In the case of `Cc1ccn(Cc2ccc(Cl)nc2)c(=NC(=O)C(F)(F)F)c1` [Compound P-222], the “Aphis gossypii” value in the data set on Aphis gossypii was determined as 100%. Further, in the data set with Laodelphax striatella, the “Laodelphax striatella” value is given as 100%.
For the compound `Cc1ccc(=NC(=O)C(F)(F)F)n(Cc2ccc(Cl)nc2)c1` [Compound P-223], the “Aphis gossypii” value in the data set with Aphis gossypii worked out at 75%. Also, the “Laodelphax striatella” value in the data set with Laodelphax striatella was determined as 75%.
For the compound `O=C(N=c1ccccn1Cc1ccc(Cl)nc1)C(F)F` [Compound P-238], the “Plutella xylostella” value in the data set on Plutella xylostella was found to be 100%. Also, the “Aphis gossypii” value in the data set with Aphis gossypii was 100%. Moreover, the “Laodelphax striatella” value in the data set with Laodelphax striatella is on record as 100%.
For the compound `O=C(N=c1ccccn1Cc1cnc(Cl)c(F)c1)C(F)(F)Cl` [Compound 5-4], the “Plutella xylostella” value in the data set with Plutella xylostella turned out to be 100%. The “Laodelphax striatella” value in the data set with Laodelphax striatella is reported as 100%.
With `Fc1cc(Cn2ccccc2=NC(=S)C(F)(F)F)cnc1Cl` [Compound 5-20], the “Plutella xylostella” value with Plutella xylostella came to 100%. In the data set on Laodelphax striatella, the “Laodelphax striatella” value was found to be 100%.
In the case of `O=C(N=c1ccccn1Cc1cnc(Cl)nc1)C(F)F` [Compound 6-3], the “Plutella xylostella” value in the data set on Plutella xylostella stood at 80%. Also, the “Laodelphax striatella” value in the data set with Laodelphax striatella was 100%.
For `N#Cc1cccn(Cc2ccc(Cl)nc2)c1=NC(=O)C(F)(F)F` [Compound 102-2], in the data set on Plutella xylostella, the “Plutella xylostella” value stood at 10%. Also, the “Aphis gossypii” value in the data set with Aphis gossypii came to 100%. Moreover, the “Laodelphax striatella” value in the data set with Laodelphax striatella is 100%.
In the case of `O=C(N=c1ccccn1Cc1ccc(F)nc1)C(F)(F)F` [Compound P-229], the “Plutella xylostella” value in the data set with Plutella xylostella worked out at 100%. The “Aphis gossypii” value in the data set on Aphis gossypii was determined as 100%. Further, the “Laodelphax striatella” value with Laodelphax striatella is on record as 100%.
With `O=C(N=c1ccc(Cl)cn1Cc1cnc(Cl)s1)C(F)(F)F` [Compound P-218], the “Plutella xylostella” value in the data set with Plutella xylostella is given as 100%. For the same compound, in the data set with Aphis gossypii, the “Aphis gossypii” value is 60%.
With `FC(F)(F)C(=S)N=c1ccccn1Cc1ccc(Br)nc1` [Compound 4-20], the “Plutella xylostella” value in the data set with Plutella xylostella is given as 100%. The “Aphis gossypii” value with Aphis gossypii was found to be 100%. Also, the “Laodelphax striatella” value in the data set with Laodelphax striatella is given as 100%.
For the compound `O=C(N=c1ccccn1Cc1cnc(Cl)s1)C(F)(F)F` [Compound P-213], the “Plutella xylostella” value with Plutella xylostella is recorded as 100%. Also, in the data set with Aphis gossypii, the “Aphis gossypii” value turned out to be 100%. Besides, the “Laodelphax striatella” value with Laodelphax striatella amounted to 100%.
In the case of `O=C(N=c1ccccn1Cc1cnc(Cl)c(F)c1)C(F)F` [Compound 5-3], in the data set on Plutella xylostella, the “Plutella xylostella” value came to 100%. The “Laodelphax striatella” value in the data set on Laodelphax striatella was found to be 100%.
In the case of `O=C(/N=c1\ccccn1Cc1ccc(F)nc1)C(F)F` [Compound 3-3, 2,2-difluoro-N-[1-((6-fluoropyridin-3-yl)methyl)pyridin-2(1H)-ylidene]acetamide], in the data set on Plutella xylostella, the “Plutella xylostella” value stood at 50%. Moreover, the “Aphis gossypii” value with Aphis gossypii stood at 100%. Also, the “Laodelphax striatella” value with Laodelphax striatella is listed as 80%.
For `C/N=C(/N=c1\ccccn1Cc1ccc(Cl)nc1)C(F)(F)F` [Compound 1-42, N-[1-((6-chloropyridin-3-yl)methyl)pyridin-2(1H)-ylidene]-2,2,2-trifluoro-N′-methylacetimidamide], in that order: 100%, 100% and 100%.
`O=C(N=c1ccccn1Cc1ccc(Cl)nc1)C(Cl)Br` (stereo not drawn) [Compound P-240]: the “Aphis gossypii” value in the data set on Aphis gossypii is recorded as 100%. In addition, in the data set on Laodelphax striatella, the “Laodelphax striatella” value is on record as 100%.
As to `O=C(N=c1ccccn1Cc1ccc(Cl)nc1)C(Cl)(Cl)Cl` [Compound P-235], the “Plutella xylostella” value in the data set with Plutella xylostella was determined as 100%. Moreover, the “Aphis gossypii” value in the data set with Aphis gossypii worked out at 95%. Moreover, the “Laodelphax striatella” value with Laodelphax striatella worked out at 75%.
Taken in the same sequence, the figures for `O=C(N=c1ccccn1Cc1ccc(F)nc1)C(F)(F)Cl` [Compound 3-4] were 100%, 100% and 100%.
Taken in the same sequence, the figures for `O=C(N=c1ccccn1Cc1ccc(F)nc1)C(F)(F)C(F)(F)F` [Compound 3-5] were 100%, 55% and 80%.
On to `O=C(N=c1ccccn1Cc1cccnc1)C(F)(F)F` [Compound P-226], for which the “Plutella xylostella” value in the data set with Plutella xylostella was 60%. Further, the “Aphis gossypii” value with Aphis gossypii is 100%.
For the compound `FC(F)(Cl)C(=S)N=c1ccccn1Cc1ccc(Cl)nc1` [Compound 1-22], the “Plutella xylostella” value in the data set with Plutella xylostella was found to be 100%. For the same compound, the “Laodelphax striatella” value in the data set with Laodelphax striatella stood at 100%.
On to `CSCCN=C(N=c1ccccn1Cc1ccc(Cl)nc1)C(F)(F)F` [Compound 1-150], for which the “Plutella xylostella” value with Plutella xylostella came out at 100%. In addition, the “Aphis gossypii” value in the data set with Aphis gossypii came out at 100%. In the data set with Laodelphax striatella, the “Laodelphax striatella” value turned out to be 80%.
`O=C(CCl)N=c1ccccn1Cc1ccc(Cl)nc1` [Compound P-236]: the “Aphis gossypii” value in the data set with Aphis gossypii was found to be 100%.
Take `FC(F)C(=S)N=c1ccccn1Cc1ccc(Cl)nc1` [Compound 1-21]: in the data set on Plutella xylostella, the “Plutella xylostella” value was 80%. Also, in the data set with Aphis gossypii, the “Aphis gossypii” value came out at 100%. In the data set on Laodelphax striatella, the “Laodelphax striatella” value came out at 100%.
For the compound `O=C(N=c1ccccn1Cc1cnc(Cl)c(F)c1)C(F)(F)F` [Compound P-227], the “Plutella xylostella” value with Plutella xylostella was 100%. For the same compound, the “Aphis gossypii” value with Aphis gossypii amounted to 100%. The “Laodelphax striatella” value in the data set on Laodelphax striatella was 100%.
Regarding `O=C(N=c1ccc(Cl)cn1Cc1ccc(Cl)nc1)C(F)(F)F` [Compound P-215], in the data set on Plutella xylostella, the “Plutella xylostella” value came to 100%. In addition, the “Aphis gossypii” value in the data set on Aphis gossypii is 80%. The “Laodelphax striatella” value in the data set on Laodelphax striatella came out at 75%.
For `O=C(N=c1ccccn1Cc1cnc(Cl)nc1)C(F)(F)F` [Compound P-243], the “Plutella xylostella” value with Plutella xylostella was determined as 100%. Also, in the data set with Aphis gossypii, the “Aphis gossypii” value came out at 100%. Also, the “Laodelphax striatella” value with Laodelphax striatella was found to be 100%.
On to `O=C(N=c1ccccn1Cc1ccc(C(F)(F)F)nc1)C(F)(F)F` [Compound P-228], for which the “Plutella xylostella” value with Plutella xylostella is listed as 30%. Besides, the “Aphis gossypii” value in the data set with Aphis gossypii turned out to be 95%. Moreover, the “Laodelphax striatella” value with Laodelphax striatella is listed as 100%.
Turning to `O=C(N=c1ccccn1Cc1cnc(Cl)c(Cl)c1)C(F)(F)F` [Compound P-230], the “Plutella xylostella” value in the data set with Plutella xylostella was 100%. Moreover, the “Aphis gossypii” value in the data set with Aphis gossypii turned out to be 100%.
On to `FC(F)(F)C(F)(F)C(=S)N=c1ccccn1Cc1ccc(Cl)nc1` [Compound 1-23], for which, in the data set with Plutella xylostella, the “Plutella xylostella” value was 100%. Moreover, the “Laodelphax striatella” value in the data set on Laodelphax striatella came out at 100%.
Take `O=C(N=c1ccccn1Cc1ccc(Cl)nc1)C(Br)Br` [Compound P-241]: the “Aphis gossypii” value in the data set on Aphis gossypii is given as 100%. Also, in the data set on Laodelphax striatella, the “Laodelphax striatella” value is 100%.
Consider `O=C(N=c1c(F)cccn1Cc1ccc(Cl)nc1)C(F)(F)F` [Compound P-233], for which the “Aphis gossypii” value in the data set with Aphis gossypii came out at 100%. Besides, the “Laodelphax striatella” value in the data set with Laodelphax striatella is listed as 75%.
